A short description of data set [1]: Phototoxicity against human skin fibroblasts at 1 to 100 uM measured after 14 hrs incubation and 24 hrs after initial 14 hrs incubation by MTS assay. The note with it: skin fibroblast. Background: Tetrazolium dyes change colour on reduction, which living cells bring about.
Data set [2] can be described thus: Photohemolytic activity against human erythrocytes after 15 mins in presence of 81197.4 mW/m2 of UVA light. The class given is ADME, cell-based. To be noted: erythrocyte, 0.25 h.
Data set [3] in a line: Photohemolytic activity against human erythrocytes at 60 uM after 15 mins in presence of 81197.4 mW/m2 of UVA light. The class given is ADME, cell-based, Erythrocyte.

Structures are written as SMILES.

From ChEMBL document CHEMBL3132798, “Ketorolac beats ketoprofen: lower photodecarboxylation, photohemolysis and phototoxicity” (Medchemcomm, 2013) come the findings set out here.

Turning to `CCc1cccc(C(=O)c2ccccc2)c1`, the Activity result is “Non-toxic” in data set [1] and “Dose-dependent effect” in data set [2].

Turning to `O=C(c1ccccc1)c1ccc2n1CCC2C(=O)O` (configuration not stated) [KETOROLAC], the Activity result in data set [1] is reported as “Non-toxic”. For the same compound, the hemolysis at 0.25 h, 60 µM in data set [3] (erythrocytes, read-out: Activity) worked out at 20%.

For the compound `CC(C(=O)O)c1cccc(C(=O)c2ccccc2)c1` (configuration not stated) [KETOPROFEN], the Activity entry in data set [1] is “Non-toxic”.

For the compound `O=C(c1ccccc1)c1ccc2n1CCC2`, the Activity result is recorded as “Non-toxic” in data set [1] and “Non-toxic” in data set [3] (erythrocyte, 0.25 h, 60 µM).
